“And” between values parts separate entries of the source, which are not always exact repeats. Equal entries are not always repeated. Where two headings read alike, the source gives them in different places.
Tests used:
wild-type EGFR = wild-type EGFR (Homo sapiens, UniProt P00533); assay: EGFR kinase assay (ELISA); settings: for IC50: IC50 (μM) EGFR, ELISA, 3 μmol/L ATP; for A450: raw ELISA absorbance
H460 cells = assay: CCK-8 antiproliferation assay, H460; settings: for IC50: NCI-H460, 48 h, read-out: IC50 (μM) H460, CCK-8, 48 h, average ± SD of three independent experiments
Experimental: The compounds were dissolved in DMSO to make a 20 μM stock solution and diluted to the concentration of working solutions with complete growth medium before administration.
Cells were seeded in 96-well plates: 3,000–5,000 cells/well in 100 ul. One day after seeding, the test compounds at concentration between 1.0 and 16.0 μ M or 0.1% DMSO (as control) were added to cells in triplicate. 48 h later, CCK-8 was added and incubated the plate for 1–4 h in the incubator. The absorbance at 450 nm were measured using a microplate reader (Bio-Tek).

A549 cells = assay: CCK-8 antiproliferation assay, A549; settings: for Inhibitory efficacy: A549 cells; for IC50: A549, 48 h, read-out: IC50 (μM) A549, CCK-8, 48 h, average ± SD of three independent experiments
PC-9 cells = assay: CCK-8 antiproliferation assay, PC-9; settings: for IC50: PC-9, 48 h, read-out: IC50 (μM) PC-9; for Inhibitory efficacy: single repeats (Repeat 1-3), given as fraction
H1975 cells = assay: CCK-8 antiproliferation assay, H1975; settings: for Inhibitory efficacy: H1975 cells; for Inhibitory efficacy / inhibition at 1 µM / inhibition at 2 µM / inhibition at 4 µM / inhibition at 8 µM / inhibition at 16 µM: given as fraction, Repeat 1-3; for IC50 / inhibition at 1 µM / inhibition at 2 µM / inhibition at 4 µM / inhibition at 8 µM / inhibition at 16 µM: Homo sapiens; for IC50: NCI-H1975, 48 h, read-out: IC50 (μM) H1975, CCK-8, 48 h, average ± SD of three independent experiments; for inhibition at 1 µM / inhibition at 2 µM / inhibition at 4 µM / inhibition at 8 µM / inhibition at 16 µM: NCI-H1975, read-out: Inhibitory efficacy, H1975 cells
[1] = 16uM, given as fraction, Repeat 1-3
[2] = Homo sapiens, A549, read-out: Inhibitory efficacy, A549 cells, 16uM, given as fraction, Repeat 1-3

Chain of wild-type EGFR (P00533 25-1210): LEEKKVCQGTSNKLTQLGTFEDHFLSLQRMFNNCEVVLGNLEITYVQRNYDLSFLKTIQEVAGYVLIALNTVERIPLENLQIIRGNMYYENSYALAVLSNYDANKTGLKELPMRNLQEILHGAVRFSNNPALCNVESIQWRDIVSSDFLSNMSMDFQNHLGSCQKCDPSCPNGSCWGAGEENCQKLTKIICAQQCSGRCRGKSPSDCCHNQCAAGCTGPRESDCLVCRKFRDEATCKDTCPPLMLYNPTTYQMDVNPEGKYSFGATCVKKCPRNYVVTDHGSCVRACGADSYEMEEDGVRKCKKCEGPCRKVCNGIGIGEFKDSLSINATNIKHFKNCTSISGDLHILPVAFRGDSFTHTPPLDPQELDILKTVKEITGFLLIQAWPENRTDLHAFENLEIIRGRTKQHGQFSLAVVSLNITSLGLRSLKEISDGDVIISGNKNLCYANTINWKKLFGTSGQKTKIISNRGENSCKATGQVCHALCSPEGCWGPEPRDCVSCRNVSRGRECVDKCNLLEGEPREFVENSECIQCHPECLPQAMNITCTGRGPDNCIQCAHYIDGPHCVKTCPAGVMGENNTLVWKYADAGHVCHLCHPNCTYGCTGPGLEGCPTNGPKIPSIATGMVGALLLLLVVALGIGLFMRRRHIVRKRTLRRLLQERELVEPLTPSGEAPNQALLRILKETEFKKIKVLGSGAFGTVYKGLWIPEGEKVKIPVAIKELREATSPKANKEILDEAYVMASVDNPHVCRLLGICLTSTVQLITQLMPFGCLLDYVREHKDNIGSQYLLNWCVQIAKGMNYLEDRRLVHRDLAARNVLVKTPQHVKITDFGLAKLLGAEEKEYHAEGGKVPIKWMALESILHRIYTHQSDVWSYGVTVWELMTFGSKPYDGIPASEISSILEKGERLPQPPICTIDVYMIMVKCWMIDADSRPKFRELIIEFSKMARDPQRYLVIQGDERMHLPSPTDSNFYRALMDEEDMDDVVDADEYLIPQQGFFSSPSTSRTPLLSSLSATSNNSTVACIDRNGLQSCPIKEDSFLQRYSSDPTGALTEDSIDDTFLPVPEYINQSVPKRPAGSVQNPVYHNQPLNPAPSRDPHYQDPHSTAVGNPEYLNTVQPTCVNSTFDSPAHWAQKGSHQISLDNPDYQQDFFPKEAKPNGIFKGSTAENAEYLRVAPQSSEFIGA

CCOc1cccc(-n2cc(-c3cccc(Nc4ncnc5cc(OCCOC)c(OCCOC)cc45)c3)nn2)c1 [e14, [6,7-Bis-(2-methoxy-ethoxy)-quinazolin-4-yl]-{3-[1-(3-ethoxy-phenyl)-1H-[1,2,3]triazol-4-yl]-phenyl}-amine]
melting point: 110 to 114 °C
IC50 (wild-type EGFR): 10.7 µM
inhibition at 30 pM (wild-type EGFR; concentration 0.03 nM, one value per replicate column): 3.1%
Inhibition (wild-type EGFR; concentration 0.03 nM, one value per replicate column, 3e-05 µM): 4.587
inhibition at 0.0003 µM (wild-type EGFR; concentration 0.3 nM, one value per replicate column): 5.16%
Inhibition (wild-type EGFR; concentration 0.3 nM, one value per replicate column, 0.0003 µM): 5.242
inhibition at 0.003 µM (wild-type EGFR; concentration 3 nM, one value per replicate column): 5.55%
Inhibition (wild-type EGFR; concentration 3 nM, one value per replicate column, 0.003 µM): 6.684
inhibition at 0.03 µM (wild-type EGFR; concentration 30 nM, one value per replicate column): 10.7%
Inhibition (wild-type EGFR; concentration 30 nM, one value per replicate column, 0.03 µM): 8.781
inhibition at 0.3 µM (wild-type EGFR; concentration 300 nM, one value per replicate column): 11.4%
Inhibition (wild-type EGFR; concentration 300 nM, one value per replicate column, 0.3 µM): 9.699
inhibition at 3 µM (wild-type EGFR; concentration 3000 nM, one value per replicate column): 22.2%
Inhibition (wild-type EGFR; concentration 3000 nM, one value per replicate column, 3 µM): 18.3486
inhibition at 30 µM (wild-type EGFR; concentration 30000 nM, one value per replicate column): 74.1%
Inhibition (wild-type EGFR; concentration 30000 nM, one value per replicate column, 30 µM): 73.6566
A450 (wild-type EGFR; concentration 0.0001 nM): 1.058 and 1.062
A450 (wild-type EGFR; concentration 0.03 nM): 1.034 and 1.027
A450 (wild-type EGFR; concentration 0.3 nM): 1.018 and 1.022
A450 (wild-type EGFR; concentration 3 nM): 1.015 and 1.011
A450 (wild-type EGFR; concentration 30 nM): 0.975 and 0.995
A450 (wild-type EGFR; concentration 300 nM): 0.97 and 0.988
A450 (wild-type EGFR; concentration 3000 nM): 0.886 and 0.922
A450 (wild-type EGFR; concentration 30000 nM): 0.484 and 0.5
Inhibitory efficacy (H460 cells; H460 cells, 2uM, given as fraction, Repeat 1-3): 0.09418 and 0.1351
Inhibitory efficacy (H460 cells; H460 cells, 8uM, given as fraction, Repeat 1-3): 0.192 and 0.3038
Inhibitory efficacy (H460 cells; H460 cells, 16uM, given as fraction, Repeat 1-3): 0.3527 and 0.3328
IC50 (H460 cells; Homo sapiens): 34.1 ± 2.5 µM
inhibition at 2 µM (H460 cells; Homo sapiens, NCI-H460, read-out: Inhibitory efficacy, H460 cells, 2uM, given as fraction, Repeat 1-3): 8.02%
inhibition at 8 µM (H460 cells; Homo sapiens, NCI-H460, read-out: Inhibitory efficacy, H460 cells, 8uM, given as fraction, Repeat 1-3): 25.9%
inhibition at 16 µM (H460 cells; Homo sapiens, NCI-H460, read-out: Inhibitory efficacy, H460 cells, 16uM, given as fraction, Repeat 1-3): 30.4%
Inhibitory efficacy (A549 cells; 1uM, given as fraction, Repeat 1-3): 0.06697 and 0.1106
Inhibitory efficacy (A549 cells; 4uM, given as fraction, Repeat 1-3): 0.2585 and 0.1473
Inhibitory efficacy (A549 cells; [1]): 0.1909 and 0.2764
IC50 (A549 cells; Homo sapiens): > 100 µM
inhibition at 1 µM (A549 cells; Homo sapiens, A549, read-out: Inhibitory efficacy, A549 cells, 1uM, given as fraction, Repeat 1-3): 8.24%
inhibition at 4 µM (A549 cells; Homo sapiens, A549, read-out: Inhibitory efficacy, A549 cells, 4uM, given as fraction, Repeat 1-3): 25.4%
inhibition at 16 µM (A549 cells; [2]): 26.4%
IC50 (PC-9 cells; Homo sapiens): > 100 µM
Inhibitory efficacy (H1975 cells; 1uM): 0.1721 and 0.1925
Inhibitory efficacy (H1975 cells; 2uM): 0.2391 and 0.2224
Inhibitory efficacy (H1975 cells; 4uM): 0.4814 and 0.4311
Inhibitory efficacy (H1975 cells; 8uM): 0.5466 and 0.5764
Inhibitory efficacy (H1975 cells; 16uM): 0.5969 and 0.5615
IC50 (H1975 cells): 7.5 ± 0.49 µM
inhibition at 1 µM (H1975 cells; 1uM): 20.6%
inhibition at 2 µM (H1975 cells; 2uM): 28.4%
inhibition at 4 µM (H1975 cells; 4uM): 34%
inhibition at 8 µM (H1975 cells; 8uM): 58.6%
inhibition at 16 µM (H1975 cells; 16uM): 57.3%

COCCOc1cc2ncnc(Nc3cccc(-c4cn(-c5ccccc5Cl)nn4)c3)c2cc1OCCOC [e8, [6,7-Bis-(2-methoxy-ethoxy)-quinazolin-4-yl]-{3-[1-(2-chloro-phenyl)-1H-[1,2,3]triazol-4-yl]-phenyl}-amine]
melting point: 131 to 134 °C
inhibition at 0.0003 µM (wild-type EGFR; 0.3 nM, duplicate wells, calculated from A450): 14.4%
Inhibition (wild-type EGFR; 0.3 nM, duplicate wells, calculated from A450, 0.0003 µM): 7.895
inhibition at 0.003 µM (wild-type EGFR; 3 nM, duplicate wells, calculated from A450): 15.7%
Inhibition (wild-type EGFR; 3 nM, duplicate wells, calculated from A450, 0.003 µM): 18.5965
inhibition at 0.03 µM (wild-type EGFR; 30 nM, duplicate wells, calculated from A450): 17.9%
Inhibition (wild-type EGFR; 30 nM, duplicate wells, calculated from A450, 0.03 µM): 21.4035
inhibition at 0.3 µM (wild-type EGFR; 300 nM, duplicate wells, calculated from A450): 28.8%
Inhibition (wild-type EGFR; 300 nM, duplicate wells, calculated from A450, 0.3 µM): 23.1579
inhibition at 3 µM (wild-type EGFR; 3000 nM, duplicate wells, calculated from A450): 43%
Inhibition (wild-type EGFR; 3000 nM, duplicate wells, calculated from A450, 3 µM): 40.5263
inhibition at 30 µM (wild-type EGFR; 30000 nM, duplicate wells, calculated from A450): 91%
Inhibition (wild-type EGFR; 30000 nM, duplicate wells, calculated from A450, 30 µM): 89.8246
IC50 (wild-type EGFR): 1.99 µM
Inhibitory efficacy (H460 cells; H460, 1uM, single repeats (Repeat 1-3), given as fraction, 1 µM): 0.1177 and 0.197
Inhibitory efficacy (H460 cells; H460, 2uM, single repeats (Repeat 1-3), given as fraction, 2 µM): 0.3433 and 0.3114
Inhibitory efficacy (H460 cells; H460, 4uM, single repeats (Repeat 1-3), given as fraction, 4 µM): 0.6025 and 0.5869
Inhibitory efficacy (H460 cells; H460, 8uM, single repeats (Repeat 1-3), given as fraction, 8 µM): 0.6548 and 0.6973
Inhibitory efficacy (H460 cells; H460, 16uM, single repeats (Repeat 1-3), given as fraction, 16 µM): 0.6875 and 0.7414
IC50 (H460 cells; Homo sapiens): 4.18 ± 0.49 µM
inhibition at 1 µM (H460 cells; Homo sapiens, NCI-H460, read-out: Inhibitory efficacy, H460, 1uM, single repeats (Repeat 1-3), given as fraction): 14.2%
inhibition at 2 µM (H460 cells; Homo sapiens, NCI-H460, read-out: Inhibitory efficacy, H460, 2uM, single repeats (Repeat 1-3), given as fraction): 35.8%
inhibition at 4 µM (H460 cells; Homo sapiens, NCI-H460, read-out: Inhibitory efficacy, H460, 4uM, single repeats (Repeat 1-3), given as fraction): 48.3%
inhibition at 8 µM (H460 cells; Homo sapiens, NCI-H460, read-out: Inhibitory efficacy, H460, 8uM, single repeats (Repeat 1-3), given as fraction): 66.5%
inhibition at 16 µM (H460 cells; Homo sapiens, NCI-H460, read-out: Inhibitory efficacy, H460, 16uM, single repeats (Repeat 1-3), given as fraction): 66.8%
Inhibitory efficacy (A549 cells; 8uM, given as fraction, Repeat 1-3): 0.2217 and 0.2238
Inhibitory efficacy (A549 cells; [1]): 0.3678 and 0.3836
IC50 (A549 cells; Homo sapiens): 23 ± 0.75 µM
inhibition at 8 µM (A549 cells; Homo sapiens, A549, read-out: Inhibitory efficacy, A549 cells, 8uM, given as fraction, Repeat 1-3): 18.4%
inhibition at 16 µM (A549 cells; [2]): 42.9%
IC50 (PC-9 cells; Homo sapiens): > 100 µM
inhibition at 4 µM (PC-9 cells; Homo sapiens, PC-9, read-out: Inhibitory efficacy, PC-9, 4uM, single repeats (Repeat 1-3), given as fraction): 17.4%
inhibition at 8 µM (PC-9 cells; Homo sapiens, PC-9, read-out: Inhibitory efficacy, PC-9, 8uM, single repeats (Repeat 1-3), given as fraction): 26.3%
inhibition at 16 µM (PC-9 cells; Homo sapiens, PC-9, read-out: Inhibitory efficacy, PC-9, 16uM, single repeats (Repeat 1-3), given as fraction): 13.4%
Inhibitory efficacy (PC-9 cells; PC-9, 4uM, 4 µM): 0.2895 and 0.3075
Inhibitory efficacy (PC-9 cells; PC-9, 8uM, 8 µM): 0.1686 and 0.3213
Inhibitory efficacy (PC-9 cells; PC-9, 16uM, 16 µM): 0.1771 and 0.2089
Inhibitory efficacy (H1975 cells; 1uM): 0.1767 and 0.1612
Inhibitory efficacy (H1975 cells; 2uM): 0.1999 and 0.1391
Inhibitory efficacy (H1975 cells; 4uM): 0.3925 and 0.388
Inhibitory efficacy (H1975 cells; 8uM): 0.5795 and 0.574
Inhibitory efficacy (H1975 cells; 16uM): 0.6879 and 0.6171
IC50 (H1975 cells): 7.19 ± 0.68 µM
inhibition at 1 µM (H1975 cells; 1uM): 16.1%
inhibition at 2 µM (H1975 cells; 2uM): 19.8%
inhibition at 4 µM (H1975 cells; 4uM): 39.9%
inhibition at 8 µM (H1975 cells; 8uM): 51.1%
inhibition at 16 µM (H1975 cells; 16uM): 64.1%
